Data taken from patent US12016355B2, “Stevia composition” (PURECIRCLE SDN BHD, priority 2011, dated 2024).
Where two headings read alike, the source gives them in different places.

Legend:
[1] = cited from earlier work
[2] = Chang and Cook 1983; cited from earlier work
[3] = Sweetness factor (SF) determination by trained panel in water; settings: for Calculated SF (sweetness factor) / Usage Level, % (concentration corresponding to 5% sucrose equivalent sweetness): in water, 5% SE
Experimental: The sweetness factors for different sweetener from all major groups were measured by tasting several concentrations of each sweetener in water by trained panel. From the sensory test at a, the concentration (%) that corresponds to the 5% sucrose equivalent (SE) sweetness were estimated and listed in Table 2. The sweetness equivalent (SE) of high intensity sweeteners (HIS) varies according to the target sugar equivalent sweetness levels, that are tested as shown in Table 3.

[4] = Trained panel evaluation, chocolate milk; settings: sugar-equivalent sweetness around 5.5%
Experimental: A series of samples were prepared to having sugar-equivalent sweetness around 5.5%. The control sample was sweetened with 5.5% sugar the test samples were sweetened with different ratios of Reb A/Reb as shown in Table 7 below. The samples were evaluated by a trained panel and screened for overall sweetness, bitterness, astringency, mouth coating, flavor intensity, acidity/tartness, sweet lingering and bitter lingering.

[5] = room temperature; reported values; cited from earlier work
[6] = format: physicochemical
Experimental: Hereinafter, unless specified otherwise the solubility of material is determined in reverse osmosis (RO) water at room temperature. Where the solubility is expressed as “%” it to be understood as number of grams of material soluble in 100 grams of solvent.
The temperature was increased at 1° C. per minute to 121° C. The mixture was maintained at 121° C. for 1 hour and then the temperature was decreased to 80° C., at 1° C. per minute, and the obtained solution was spray dried using YC-015 laboratory spray drier (Shanghai Pilotech Instrument & Equipment Co. Ltd., China) operating at 175° C. inlet and 100° C. outlet temperature. Solution was maintained at 80° C. to prevent premature crystallization.
Solubility were evaluated for Reb A, Reb B, mechanical blends of Reb A and Reb B powders of different ratios, and mixtures of Reb A and Reb B prepared according to process described in EXAMPLE 1.

[7] = Trained panel evaluation, no fat (NF) yogurt; settings: formulas of Table 6
Experimental: Samples were prepared according to formulas outlined below in Table 6. Samples included a full sugar reference, an aspartame reference, a Reb A control and several test samples with a Reb A/Reb B blends. The samples were evaluated by a trained panel and screened for overall sweetness, bitterness, astringency, mouth coating, flavor intensity, acidity/tartness, sweet lingering and bitter lingering.

[8] = Sugar equivalent sweetness of sweetener/Reb B combinations in plain water, trained panel; settings: Reb B at 50, 150 and 300 ppm with sweeteners of Table 2
Experimental: In one embodiment, Reb B was combined (at 50, 150 and 300 ppm) with several sweeteners listed in Table 2 to make solutions in plain water. Some of the sweeteners were tested at two different concentrations to obtain around 2% sugar equivalent sweetness without any Reb B. A trained panel conducted sensory tests to determine the effect of the addition of different amounts of Reb B to each sweetener on overall sweetness quality and intensity as shown in Table 4.

[9] = Descriptive sensory evaluation, peppermint mouthwash, 8 panelists; settings: Maltitol 6.44% + Reb B 50 or 150 ppm
Experimental: A commercial unsweetened (no sugar or sweetener) peppermint mouthwash product (Brand: The Natural Dentist) was used to determine the effect of Reb B with other sweetener, as example maltitol, a sugar alcohol on the sensory profile of mouthwash. Mouthwash samples were sweetened with Maltitol (6.44%), Maltitol+Reb B (50 ppm), Maltitol+Reb B (150 ppm). Descriptive sensory evaluation was conducted with 8 panelists. They evaluated several attributes including sweet onset, total sweetness, bitterness, rounded sweetness, flavor intensity, astringency, mouth coating, sweet lingering, bitter lingering, aftertaste mouth coating, tartness.

[10] = Descriptive sensory evaluation, lime-tequila margarita alcoholic beverage; settings: FOS 21% + Reb B 150 ppm, about 10% alcohol
Experimental: The Fructo-oligosaccharide (FOS) sweetener and the steviol glycosides compositions (described in EXAMPLE 12) were used for making an alcoholic beverage—lime-tequila margarita drink using Margarita pre-mix from FIS (Flavor International Systems), recommended usage was 0.4%. Prepared Lime Tequila Margarita blank containing about 10% alcohol, no sugar added. To sweeten the beverage, used FOS (21%), FOS+Reb B (150 ppm), and FOS+Reb A/Reb B (68 ppm). Descriptive Sensory evaluation was conducted with 8-13 panelists.

[11] = Descriptive sensory evaluation of sweetener solutions in water by trained panel
Experimental: In another embodiment, Stevia sweetener (Reb A, Reb B or blends thereof) solutions were made by completely dissolving Stevia into distilled water. Solutions were tasted and evaluated by a trained panel. […] All solutions were made with different mass ratio of Reb A and Reb Bas shown in FIG. 3 to get the 7% sweetness equivalent. Reb B a mount varied between 20 mg/kg to 150 mg/kg.
All sensory attributes were rated by trained panelists on a scale of zero (0) to ten (10). Samples were presented in a randomized fashion and labeled with three-digit codes.
Sweet Onset—This attribute describes the time at which panelists perceived sweetness upon placing the sample in the mouth. A score of zero indicates immediate identification of sweetness, whereas a score of ten indicates a long delay in the time that sweetness was perceived.
Total Sweetness—This attribute describes the highest intensity of sweetness perceived during tasting. A score of zero indicates no sweetness, while a score of ten indicates very high sweetness.
Bitterness—This attribute describes the highest intensity of bitterness perceived during tasting. A score of zero indicates no bitterness, while a score of ten indicates very high bitterness.
Rounded Sweetness—This attribute describes the duration of sweetness while samples are in the mouth.
Flavor Intensity—This attribute describes the highest intensity of flavor perceived during tasting. A score of zero indicates no flavor, while a score of ten indicates very high flavor.
Astringency—This attribute describes the highest intensity of astringency perceived during tasting. A score of zero indicates no astringency, while a score of ten indicates very high astringency.
Mouth Coating—This attribute describes the highest intensity of sweetness coating perceived while samples are in the mouth.
Sweet Lingering—This attribute describes the highest intensity of sweetness perceived after the sample has been swallowed.
Bitter Lingering—This attribute describes the highest intensity of bitterness perceived after the sample has been swallowed.
Aftertaste Mouth Coating—This attribute describes the highest intensity of sweetness coating perceived after the sample has been swallowed.
Tartness—This attribute describes the highest intensity of tartness perceived during tasting. A score of zero indicates no tartness, while a score of ten indicates very high tartness.
Cooling Sensation—This attribute describes the highest intensity of cooling sensation perceived during tasting. A score of zero indicates no cooling sensation, while a score of ten indicates very high cooling sensation.
Water solution of mogroside (100 ppm) sweetener was tested against solutions made with mogroside (100 ppm)+Reb B (300 ppm) and mogroside (100 ppm)+Reb A/B (Example 3) blend (128 ppm) by a 13 members trained panel.
Water solution of sucralose (40 ppm) was tested against solutions made with sucralose (40 ppm)+Reb B (150 ppm) and sucralose (40 ppm)+Reb A/Reb B (Example 3) blend (68 ppm) by a 13 members trained panel.
Water solution of erythritol (5%) was tested against solutions made with erythritol (5%)+Reb B (50 ppm) and erythritol (5%)+Reb A/Reb B (Example 3) blend (22 ppm) by a 13 members trained panel.
Fructo-oligosaccharide or FOS solution (21%) was tested against solutions made with FOS (21%)+Reb B (150 ppm) and FOS (21%)+Reb A/Reb B (Example 3) blend (68 ppm) by a 13 members trained panel.

[12] = sensory evaluations, Crammer and Ikan 1986

Structure (SMILES)	stability in carbonated beverages [2]	Sweetness factor ([3]; SE level 5.0%)	Sweetness factor ([3]; SE level 7.5%)	Sweetness factor ([3]; SE level 10.0%)	Sweetness factor ([3]; SE level […])	Calculated SF (sweetness factor) [3]	Usage Level, % (concentration corresponding to 5% sucrose equivalent sweetness) [3]	water solubility [5]	times sweeter than sucrose [1, 12]	also measured
C=C1C[C@@]23CC[C@H]4[C@@](C)(CCC[C@@]4(C)C(=O)O[C@@H]4O[C@H](CO)[C@@H](O)[C@H](O)[C@H]4O)[C@@H]2CC[C@]1(O[C@@H]1O[C@H](CO)[C@@H](O)[C@H](O)[C@H]1O[C@@H]1O[C@H](CO)[C@@H](O)[C@H](O)[C@H]1O)C3 [stevioside]	heat and pH stability									times sweeter than sucrose ([1]; as usually found, literature): 110-270 times
C=C1C[C@@]23CC[C@H]4[C@@](C)(CCC[C@@]4(C)C(=O)O[C@@H]4O[C@H](CO)[C@@H](O)[C@H](O)[C@H]4O)[C@@H]2CC[C@]1(O[C@@H]1O[C@H](CO)[C@@H](O)[C@H](O[C@@H]2O[C@H](CO)[C@@H](O)[C@H](O)[C@H]2O)[C@H]1O[C@@H]1O[C@H](CO)[C@@H](O)[C@H](O)[C@H]1O)C3 [Reb A, Rebaudioside A]	heat and pH stability	290	250	200	400	291	0.0172%	0.8%	350-450 times	sweetness and flavor profile [4]: separate peaks for sweetness, dairy notes, and cocoa notes; sensory attributes among major steviol glycosides ([1]; Tanaka 1987, Phillips 1989): the least astringent, the least bitter, and the least persistent aftertaste; water solubility [6]: around 1%; acidity [7]: enhanced the acidity of the yogurt; bitterness [7]: bitterness at the end
C=C1C[C@@]23CC[C@H]4[C@@](C)(CCC[C@@]4(C)C(=O)O)[C@@H]2CC[C@]1(O[C@@H]1O[C@H](CO)[C@@H](O)[C@H](O[C@@H]2O[C@H](CO)[C@@H](O)[C@H](O)[C@H]2O)[C@H]1O[C@@H]1O[C@H](CO)[C@@H](O)[C@H](O)[C@H]1O)C3 [Reb B, Rebaudioside B]		126	95	59	146	126	0.0397%	about 0.1%	300-350 times	effect of addition of Reb B on overall sweetness quality and intensity [8]: generally increased upfront sweetness, made the sweetness profile rounded and contributed to sweetness lingering at a higher level; all other sensory attributes [9]: generally unchanged; sweetness onset and total sweetness [9]: created an earlier sweetness onset, and higher total sweetness; flavor intensity, bitter lingering and tartness [10]: decrease in flavor intensity, bitter lingering, and tartness; sweetness profile of the alcoholic beverage [10]: sweetness onset was earlier in the profile, and there was an increase in total sweetness and the sweetness profile was more rounded; sweetness and sweetness profile versus FOS solution ([11]; FOS 21% + Reb B 150 ppm or Reb A/Reb B 68 ppm): significantly higher sweetness and made the sweetness profile rounded; onset of sweetness, peak sweetness and sweetness lingering versus erythritol solution ([11]; water, erythritol 5% + Reb B 50 ppm): improved the onset of sweetness and the peak sweetness without increasing the sweetness lingering; taste (sweetness, bitterness, cooling effect) versus erythritol solution ([11]; water, erythritol 5% + Reb B 50 ppm or Reb A/Reb B 22 ppm): improved the taste of erythritol sample significantly by increasing the sweetness and reducing the bitterness and cooling effect; taste attributes versus mogroside solution ([11]; water, mogroside 100 ppm + Reb B 300 ppm or Reb A/B 128 ppm): increases sweetness level significantly, improves the onset of sweetness and decreases the bitterness; onset of sweetness and off taste versus sucralose solution ([11]; water, sucralose 40 ppm + Reb B 150 ppm): improved the onset of sweetness and decreased the off taste slightly; sweetness level versus sucralose solution ([11]; water, sucralose 40 ppm + Reb B 150 ppm or Reb A/Reb B 68 ppm): significantly higher sweetness level; Solubility in water [6]: No*
